Data: the NIST ThermoML archive (doi:10.1021/je800637t)
± gives the expanded uncertainty stated by the source.

How the values were obtained:
[1] = refractive index (Na D-line) (dimensionless); mn = molality of the nth substance listed, in mol/kg; conditions: 100.8 kPa, Liquid, Standard Abbe refractometry, m2 = 0
[2] = mn = molality of the nth substance listed, in mol/kg; conditions: 100.8 kPa, Liquid, m2 = 0; for viscosity: Cone and plate viscometry; for electrical conductivity: Kyoto model CM-117 conductivity meter

Q: With `O` [water] + O=[N+]([O-])[O-].[K+] as the molecule, how does the refractive index ([1]; 298.15 K) read?
A: 1.33277 ± 0.0004

Q: What about the refractive index ([1]; 313.15 K) of the same molecule?
A: 1.3306 ± 0.0004

Q: And the viscosity ([2]; 298.15 K)?
A: 0.891 ± 0.009 mPa·s

Q: What about the electrical conductivity ([2]; 298.15 K) of the same molecule?
A: 0.000125 ± 2e-06 S/m

Q: What about the viscosity ([2]; 313.15 K) of the same molecule?
A: 0.653 ± 0.007 mPa·s

Q: What about the electrical conductivity ([2]; 313.15 K) of the same molecule?
A: 0.000164 ± 2e-06 S/m

Q: What about the mass density ([2]; 313.15 K, Vibrating tube method) of the same molecule?
A: 992.15 ± 0.05 kg/m3
